Assays:
Assay type in all cases: physicochemical
[1] = Dynamic vapor sorption (DVS) hygroscopicity; details: 25° C.
Method: DVS measurements were performed with a SMS—DVS Intrinsic. The sample size was about 50 mg, accurately weighed. The measurement was performed at 25° C., the relative humidity (RH) range investigated was 40-90-0-90% RH with 10% RH steps. After each RH change, the mass of the sample was allowed to stabilize (waiting time 10 to 60 minutes, stabilization criterion ≤0.002 g for 10 minutes). The hygroscopicity of the sample was calculated as follows: [formula] • where: • W1: weight of sample at the start of the experiment (25° C. and 40% RH) • W2: weight of sample at 25° C. and 80% RH in the first sorption cycle High Pressure Liquid Chromatography (HPLC)

[2] = Exposure to moist air (RH 95%, room temperature), XRPD before/after; details: 15-20 hours at 95% humidity
Method: FIG. 4 is a series of XRPD patterns, showing NaCDC Form A before (thick line) and after (thin line) 15 hours of exposure to RH 95% at room temperature. FIG. 8 is a series of XRPD patterns, showing NaCDC Form B before (thick line) and after (thin line) 15 hours of exposure to RH 95% at room temperature.

[3] = Intrinsic dissolution, USP rotating disk apparatus
Method: For the intrinsic dissolution studies, the following HPLC method was used: [table] Intrinsic dissolution profiles of NaCDC Form A and Form B were determined from a drug disk of constant surface area using a USP rotating disk apparatus in phosphate buffer (pH 7.4) at 37° C. […] A typical apparatus consisted of a punch and a die, whose base is attached to a surface plate. […] The punch was then inserted in the die cavity and the test material was compressed with a hydraulic press. A non-disintegrating compact of the material was formed in the die cavity with a single face of defined area exposed on the bottom of the die. The die assembly was then attached to a shaft with a holder and the surface plate was removed. The shaft holding the die assembly was positioned into the dissolution medium at a distance not less than 1.0 cm from the bottom of the vessel. In this procedure, fluid flow was generated by the rotation of the die. The amount of material dissolved was measured as a function of time. In particular, the cumulative amount dissolved at each time point was corrected for losses due to sampling. […] Method parameters are summarized below: [table]

[4] = Storage of screening solids at RT, XRPD after storage
Method: Form S2 was obtained from experiment VDS05 with EtOH after 12 days of diffusion at 50° C. […] The HPLC purity of the tested material was 92.1% at 212 nm. TG/DSC analysis of this material was consistent with that obtained from experiments SAS48, SDGR01, and SDGR07. XRPD analysis of this material is shown in FIG. 33, and the corresponding data summarized in Table S2: Form S8 was obtained in mixture with starting material ([…]) from experiment VDS12 with MEK after 12 days of diffusion at 50° C. […] The HPLC purity of the tested material was 93.7% at 212 nm. An XRPD spectrum of the material from experiment VDS12 is shown in FIG. 34A, as compared to NaCDC Form B, and the corresponding data are summarized in Table S8: The precipitate that formed in the water solution in the presence of acetone (as anti-solvent) was stored at RT for up to 3 weeks before it was subjected to thermal analysis. In this case, the majority of ASDS03 solid was dried at RT on filter paper up to 2 h and after that the recovered material was analyzed by XRPD. […] (Tonset) was observed. […] The precipitates that formed in the water solution in the presence of acetonitrile (as anti-solvent) from experiments ASDS04 and ASDS08 were stored at RT up to 24 days before being subjected to thermal analysis. In this case, the majority of solids from experiments ASDS04 and ASDS08 were dried at RT on filter paper for 1-2 h, and after that the recovered materials were analyzed by XRPD. […] The corresponding data for the initial material obtained from experiment […]) are summarized below: The precipitate that formed into the TFE solution in the presence of MTBE (as anti-solvent) was stored at RT for 22 days before being subjected to thermal analysis. In this case, the majority of the material from experiment ASDS19 was dried at RT on filter paper up to 2 h, and after that the recovered material was analyzed by XRPD. […] Considering that Form S12 was obtained as mixture with amorphous phase and with low crystallinity, there is a possibility that Form S12 is the same as Form S15. The XRPD data from experiment ASDS19 before storage for 22 days is summarized in Table S12, and the XRPD data from experiment ASDS19 after storage for 22 days is summarized in Table S15. The precipitate that formed into the TFE solution in the presence of DIPE (as anti-solvent) was stored at RT for 22 days before being subjected to thermal analysis. In this case, the majority of material obtained from experiment ASDS16 was dried at RT on filter paper up to 2 h, and after that, the recovered material was analyzed by XRPD. […] The precipitate that formed into the water solution in the presence of acetone (as anti-solvent) was stored at RT for 2 weeks before being subjected to thermal analysis. In this case, the majority of material obtained from experiment RAS11 was dried at RT on filter paper for 1-2 h, and after that the recovered material was analyzed by XRPD. […] The precipitate that formed into the TFE solution in the presence of iPrOAC (as anti-solvent) was stored at RT for 2 weeks before being subjected to thermal analysis. In this case, the majority of material from experiment RAS34 dried at RT on filter paper for 1-2 h, and after that the recovered material was analyzed by XRPD. […] The precipitate that formed into the TFE solution in the presence of EtOAc (as anti-solvent) was stored at RT for 2 weeks before being subjected to thermal analysis. In this case, the majority of material obtained from experiment RAS33 was dried at RT on filter paper for 1-2 h, and after that the recovered material was analyzed by XRPD. […] The precipitate that formed into the TFE solution in the presence of MTBE (as anti-solvent) was stored at RT for 2 weeks before being subjected to thermal analysis. In this case, the majority of the material obtained from experiment RAS36 that had been stored for 2 weeks was dried at RT on filter paper for 1-2 h, and after that the recovered material was analyzed by XRPD.

C[C@H](CCC(=O)[O-])[C@H]1CC[C@H]2[C@@H]3[C@H](O)C[C@@H]4C[C@H](O)CC[C@]4(C)[C@H]3CC[C@]12C.[Na+] [Form A, sodium chenodeoxycholate]
hygroscopicity by DVS [1]: hygroscopic
weight change in the first sorption cycle (DVS) ([1]; 40% RH to 80% RH): 14.1%
effect of exposure to moist air (XRPD) [2]: partial amorphization and loss of crystallinity
solid form after compression (XRPD) ([3]; 2 tons for 2 minutes): no change in solid form
IDR (intrinsic dissolution rate) ([3]; USP phosphate buffer pH 7.4, 37° C., 100 rpm, disk 0.5024 cm^2): 0.6959 mg · min^−1 · cm^−2

C[C@H](CCC(=O)[O-])[C@H]1CC[C@H]2[C@@H]3[C@H](O)C[C@@H]4C[C@H](O)CC[C@]4(C)[C@H]3CC[C@]12C.[Na+] [Form S1, sodium chenodeoxycholate]
XRPD form after storage ([4]; ASDS03 precipitate in water/acetone, stored at RT up to 3 weeks, dried on filter paper): transformed into Form S14
XRPD form after storage ([4]; RAS11 precipitate in water/acetone, stored at RT for 2 weeks): high tendency of amorphization

C[C@H](CCC(=O)[O-])[C@H]1CC[C@H]2[C@@H]3[C@H](O)C[C@@H]4C[C@H](O)CC[C@]4(C)[C@H]3CC[C@]12C.[Na+] [Form S2, sodium chenodeoxycholate]
form on storage ([4]; VDS05 material (EtOH vapor, 12 days, 50° C.), storage conditions at RT): remained stable

C[C@H](CCC(=O)[O-])[C@H]1CC[C@H]2[C@@H]3[C@H](O)C[C@@H]4C[C@H](O)CC[C@]4(C)[C@H]3CC[C@]12C.[Na+] [Form S3, sodium chenodeoxycholate]
XRPD form after storage ([4]; RAS34 precipitate in TFE/iPrOAc, stored at RT for 2 weeks): remained unchanged

C[C@H](CCC(=O)[O-])[C@H]1CC[C@H]2[C@@H]3[C@H](O)C[C@@H]4C[C@H](O)CC[C@]4(C)[C@H]3CC[C@]12C.[Na+] [Form S6, sodium chenodeoxycholate]
XRPD form after storage ([4]; RAS33 precipitate in TFE/EtOAc, stored at RT for 2 weeks): transformed into Form S1

C[C@H](CCC(=O)[O-])[C@H]1CC[C@H]2[C@@H]3[C@H](O)C[C@@H]4C[C@H](O)CC[C@]4(C)[C@H]3CC[C@]12C.[Na+] [Form S8, sodium chenodeoxycholate]
form on storage ([4]; VDS12 material (MEK vapor, 50° C.), mixture with NaCDC Form B, storage at RT): remained stable

C[C@H](CCC(=O)[O-])[C@H]1CC[C@H]2[C@@H]3[C@H](O)C[C@@H]4C[C@H](O)CC[C@]4(C)[C@H]3CC[C@]12C.[Na+] [Form S9-a, sodium chenodeoxycholate]
XRPD form after storage ([4]; ASDS04 precipitate in water/acetonitrile, stored at RT 22 days): remained unchanged

C[C@H](CCC(=O)[O-])[C@H]1CC[C@H]2[C@@H]3[C@H](O)C[C@@H]4C[C@H](O)CC[C@]4(C)[C@H]3CC[C@]12C.[Na+] [Form S9-b, sodium chenodeoxycholate]
XRPD form after storage ([4]; ASDS08 precipitate in water/acetonitrile, stored at RT 23 days): transformed into a form similar to Form S9-a

C[C@H](CCC(=O)[O-])[C@H]1CC[C@H]2[C@@H]3[C@H](O)C[C@@H]4C[C@H](O)CC[C@]4(C)[C@H]3CC[C@]12C.[Na+] [Form S12, sodium chenodeoxycholate]
XRPD form after storage ([4]; ASDS19 precipitate in TFE/MTBE, stored at RT for 22 days): transformed into Form S15

C[C@H](CCC(=O)[O-])[C@H]1CC[C@H]2[C@@H]3[C@H](O)C[C@@H]4C[C@H](O)CC[C@]4(C)[C@H]3CC[C@]12C.[Na+] [Form S13, sodium chenodeoxycholate]
XRPD form after storage ([4]; ASDS16 precipitate in TFE/DIPE, stored at RT for 22 days): remained unchanged

C[C@H](CCC(=O)[O-])[C@H]1CC[C@H]2[C@@H]3[C@H](O)C[C@@H]4C[C@H](O)CC[C@]4(C)[C@H]3CC[C@]12C.[Na+] [Form S15, sodium chenodeoxycholate]
XRPD form after storage ([4]; RAS36 precipitate in TFE/MTBE, stored at RT for 2 weeks): transformed into Form S14

Reference: patent US20250206773A1, “FORMS AND COMPOSITIONS OF SODIUM CHENODEOXYCHOLATE” (Syntis Bio, Inc., priority 2022, published 2025)
